Test results reported in US20070154567A1, “Use of mercury to treat cancer” (priority 2006, published 2007).

System: non-operable neck tumor of unknown origin and metastasis in the lungs
Assay: Oral inorganic mercury (II) treatment of a pet English Setter: blood data and clinical follow-up
Format: in vivo, dog
Parameters: Anion Gap / MCV / MCH / MCHC / Neutrophils, absolute / Lymphocytes, absolute / Monocytes, absolute / Eosinophils, absolute: unit not given here
Procedure: A 10 years old female English Setter was diagnosed with a non-operable neck tumor of unknown origin and metastasis in the lungs.
The dog completed 130-day inorganic mercury (II) treatment that consisted of 58 days of the first treatment course followed by 20 days of an interval period, and the 52-day second treatment course. The formulation contained 1 mM mercury acetate in 20 mM sodium acetate buffer, pH 4.5, with 100 mM sucrose and 150 mM sodium chloride additives. It was introduced orally to the dog three times a day at 0.5 micromole Hg^2+/kg/day. At the start of the treatment, the dog was in poor health condition: was easily tired, had difficulty to swallow, heavy breathing due to lung metastasis. The tumor was easily palpated at the neck. […] These changes were correlated with reduction in ALP levels (Days 5, 22, 40, 65).
During the second treatment course the progression of the disease was slowed down, but not to the degree observed during the first treatment course. The treatment was stopped at Day 128, and the dog was euthanized 2-3 weeks later.

## CC(=O)[O-].CC(=O)[O-].[Hg+2] [inorganic mercury (II), mercury acetate]
Day 5
  ALT (SGPT): 84 U/L
  AST (SGOT): 22 U/L
  Albumin: 3.3 g/dL
  Albumin/Globulin Ratio: 1.1
  Alkaline Phosphatase (ALP): 204 U/L
  Amylase: 771 U/L
  Anion Gap: 26
  BUN: 39 mg/dL
  BUN/Creatinine Ratio: 43.3
  CPK: 84 U/L
  Calcium: 11.7 mg/dL
  Chloride: 113 mE/L
  Cholesterol: 269 mg/dL
  Creatinine: 0.9 mg/dL
  Direct Billirubin: 0 mg/dL
  Eosinophils, (%): 4%
  Eosinophils, absolute: 576
  GGT: 2 U/L
  Globulin: 2.9 g/dL
  Glucose: 116 mg/dL
  Hematocrit: 41.8%
  Hemoglobin: 14.5 g/dL
  Indirect Billirubin: 0.2 mg/dL
  Lipase: 799 U/L
  Lymphocytes, (%): 48%
  Lymphocytes, absolute: 6912
  MCH: 24.5
  MCHC: 34.7
  MCV: 71
  Monocytes, (%): 6%
  Monocytes, absolute: 864
  Na/K ratio: 32
  Neutrophils, (%): 41%
  Neutrophils, absolute: 5904
  Phosphorus: 5.2 mg/dL
  Platelet count: 534 10^3/microl
  Potassium: 4.8 mE/L
  RBC: 5.9 10^6/microl
  Sodium: 152 mE/L
  T4: 1.4 µg/dL
  Total Billirubin: 0.2 mg/dL
  Total Protein: 6.2 g/dL
  WBC: 14.4 10^3/microl
  tCO2: 18 mEq/L
Day 22
  ALT (SGPT): 84 U/L
  AST (SGOT): 13 U/L
  Albumin: 3.3 g/dL
  Albumin/Globulin Ratio: 1.2
  Alkaline Phosphatase (ALP): 142 U/L
  Amylase: 738 U/L
  Anion Gap: 24
  BUN: 17 mg/dL
  BUN/Creatinine Ratio: 21.3
  CPK: 96 U/L
  Calcium: 10.8 mg/dL
  Chloride: 113 mE/L
  Cholesterol: 230 mg/dL
  Creatinine: 0.8 mg/dL
  Direct Billirubin: 0 mg/dL
  Eosinophils, (%): 2%
  Eosinophils, absolute: 332
  GGT: 3 U/L
  Globulin: 2.8 g/dL
  Glucose: 102 mg/dL
  Hematocrit: 44.7%
  Hemoglobin: 15.2 g/dL
  Indirect Billirubin: 0.1 mg/dL
  Lipase: 718 U/L
  Lymphocytes, (%): 64%
  Lymphocytes, absolute: 10624
  MCH: 24.3
  MCHC: 34.1
  MCV: 71
  Na/K ratio: 26
  Neutrophils, (%): 34%
  Neutrophils, absolute: 5644
  Phosphorus: 3.6 mg/dL
  Platelet count: 483 10^3/microl
  Potassium: 5.7 mE/L
  RBC: 6.26 10^6/microl
  Sodium: 150 mE/L
  T4: 1.8 µg/dL
  Total Billirubin: 0.1 mg/dL
  Total Protein: 6.1 g/dL
  WBC: 16.6 10^3/microl
  tCO2: 19 mEq/L
Day 40
  ALT (SGPT): 87 U/L
  AST (SGOT): 20 U/L
  Albumin: 3.4 g/dL
  Albumin/Globulin Ratio: 1.1
  Alkaline Phosphatase (ALP): 111 U/L
  Anion Gap: 28
  BUN: 22 mg/dL
  BUN/Creatinine Ratio: 24.4
  CPK: 124 U/L
  Calcium: 11.0 mg/dL
  Chloride: 110 mE/L
  Cholesterol: 222 mg/dL
  Creatinine: 0.9 mg/dL
  Direct Billirubin: 0.1 mg/dL
  Eosinophils, (%): 1%
  Eosinophils, absolute: 160
  GGT: 2 U/L
  Globulin: 3.0 g/dL
  Glucose: 99 mg/dL
  Hematocrit: 46.1%
  Hemoglobin: 14.8 g/dL
  Indirect Billirubin: 0 mg/dL
  Lymphocytes, (%): 64%
  Lymphocytes, absolute: 10240
  MCH: 23.7
  MCHC: 32.2
  MCV: 74
  Monocytes, (%): 6%
  Monocytes, absolute: 960
  Na/K ratio: 26
  Neutrophils, (%): 29%
  Neutrophils, absolute: 4640
  Phosphorus: 4.6 mg/dL
  Platelet count: 511 10^3/microl
  Potassium: 5.7 mE/L
  RBC: 6.26 10^6/microl
  Sodium: 151 mE/L
  Total Billirubin: 0.1 mg/dL
  Total Protein: 6.4 g/dL
  WBC: 16 10^3/microl
  tCO2: 19 mEq/L
Day 65
  ALT (SGPT): 111 U/L
  AST (SGOT): 28 U/L
  Albumin: 3.5 g/dL
  Albumin/Globulin Ratio: 1.5
  Alkaline Phosphatase (ALP): 78 U/L
  Amylase: 431 U/L
  Anion Gap: 27
  BUN: 30 mg/dL
  BUN/Creatinine Ratio: 30
  CPK: 120 U/L
  Calcium: 10.5 mg/dL
  Chloride: 109 mE/L
  Cholesterol: 169 mg/dL
  Creatinine: 1.0 mg/dL
  Direct Billirubin: 0.1 mg/dL
  Eosinophils, (%): 1%
  Eosinophils, absolute: 211
  GGT: 7 U/L
  Globulin: 2.4 g/dL
  Glucose: 94 mg/dL
  Hematocrit: 44.6%
  Hemoglobin: 14.3 g/dL
  Indirect Billirubin: 0 mg/dL
  Lipase: 449 U/L
  Lymphocytes, (%): 61%
  Lymphocytes, absolute: 12871
  MCH: 23.5
  MCHC: 32.1
  MCV: 73
  Na/K ratio: 29
  Neutrophils, (%): 38%
  Neutrophils, absolute: 8018
  Phosphorus: 4.4 mg/dL
  Platelet count: 404 10^3/microl
  Potassium: 5.2 mE/L
  RBC: 6.09 10^6/microl
  Sodium: 150 mE/L
  T4: 1.6 µg/dL
  Total Billirubin: 0.1 mg/dL
  Total Protein: 5.9 g/dL
  WBC: 21.1 10^3/microl
  tCO2: 19 mEq/L
Day 103
  ALT (SGPT): 95 U/L
  AST (SGOT): 25 U/L
  Albumin: 3.2 g/dL
  Albumin/Globulin Ratio: 1.3
  Alkaline Phosphatase (ALP): 58 U/L
  Amylase: 745 U/L
  Anion Gap: 27
  BUN: 13 mg/dL
  BUN/Creatinine Ratio: 16.3
  CPK: 103 U/L
  Calcium: 9.6 mg/dL
  Chloride: 107 mE/L
  Cholesterol: 146 mg/dL
  Creatinine: 0.8 mg/dL
  Direct Billirubin: 0.1 mg/dL
  Eosinophils, (%): 1%
  Eosinophils, absolute: 165
  GGT: 6 U/L
  Globulin: 2.4 g/dL
  Glucose: 107 mg/dL
  Hematocrit: 40.7%
  Hemoglobin: 13.4 g/dL
  Indirect Billirubin: 0 mg/dL
  Lipase: 630 U/L
  Lymphocytes, (%): 71%
  Lymphocytes, absolute: 11715
  MCH: 23.4
  MCHC: 32.9
  MCV: 71
  Monocytes, (%): 7%
  Monocytes, absolute: 1155
  Na/K ratio: 28
  Neutrophils, (%): 20%
  Neutrophils, absolute: 3300
  Phosphorus: 3.7 mg/dL
  Platelet count: 409 10^3/microl
  Potassium: 5.2 mE/L
  RBC: 5.72 10^6/microl
  Sodium: 148 mE/L
  T4: 1.4 µg/dL
  Total Billirubin: 0.1 mg/dL
  Total Protein: 5.6 g/dL
  WBC: 16.5 10^3/microl
  tCO2: 19 mEq/L
Day 128
  ALT (SGPT): 89 U/L
  AST (SGOT): 23 U/L
  Albumin: 3.0 g/dL
  Albumin/Globulin Ratio: 1.2
  Alkaline Phosphatase (ALP): 45 U/L
  Amylase: 633 U/L
  Anion Gap: 22
  BUN: 24 mg/dL
  BUN/Creatinine Ratio: 30
  CPK: 53 U/L
  Calcium: 9.9 mg/dL
  Chloride: 116 mE/L
  Cholesterol: 133 mg/dL
  Creatinine: 0.8 mg/dL
  Direct Billirubin: 0.1 mg/dL
  Eosinophils, (%): 2%
  Eosinophils, absolute: 330
  GGT: 13 U/L
  Globulin: 2.6 g/dL
  Glucose: 116 mg/dL
  Hematocrit: 38.1%
  Hemoglobin: 12.3 g/dL
  Indirect Billirubin: 0 mg/dL
  Lipase: 415 U/L
  Lymphocytes, (%): 46%
  Lymphocytes, absolute: 7774
  MCH: 22.6
  MCHC: 32.2
  MCV: 70
  Monocytes, (%): 5%
  Monocytes, absolute: 845
  Na/K ratio: 31
  Neutrophils, (%): 47%
  Neutrophils, absolute: 7943
  Phosphorus: 3.1 mg/dL
  Platelet count: 508 10^3/microl
  Potassium: 4.8 mE/L
  RBC: 5.44 10^6/microl
  Sodium: 151 mE/L
  T4: 1.1 µg/dL
  Total Billirubin: 0.1 mg/dL
  Total Protein: 5.6 g/dL
  WBC: 16.9 10^3/microl
  tCO2: 19 mEq/L
During the first treatment course
  general condition: steady improvement
During the second treatment course, not to the degree of the first course
  progression of the disease: slowed down
